Source: PubChem BioAssay AID1259407 (Chemical Carcinogenesis Research Information System (CCRIS), 2018)
“Also recorded” adds a separate entry of the source. The source made the active and inactive calls. No rule for the calls is given here.

Tested on: CCRIS mutagenicity, Ames/micronucleus/aberration tests
Assay: CCRIS mutagenicity studies
[1] = Test System: AMES SALMONELLA TYPHIMURIUM, Strain/Indicator: TA98, Metabolic Activation: NONE, Method: PREINCUBATION
[2] = Test System: AMES SALMONELLA TYPHIMURIUM, Strain/Indicator: TA100, Metabolic Activation: NONE, Method: PREINCUBATION
[3] = Test System: AMES SALMONELLA TYPHIMURIUM, Strain/Indicator: TA1535, Metabolic Activation: NONE, Method: PREINCUBATION
[4] = Test System: AMES SALMONELLA TYPHIMURIUM, Strain/Indicator: TA1537, Metabolic Activation: NONE, Method: PREINCUBATION
[5] = Test System: AMES SALMONELLA TYPHIMURIUM, Strain/Indicator: TA100, Metabolic Activation: NONE, Method: STANDARD PLATE

C1CN(SSN2CCOCC2)CCO1
mutagenic call [1]: inactive; negative | mutagenic call (Test System: AMES SALMONELLA TYPHIMURIUM, Strain/Indicator: TA98, Metabolic Activation: RAT LIVER S-9, PHENOBARBITAL AND BETA-NAPHTHOFLAVONE, Method: PREINCUBATION): inactive; negative | mutagenic call [2]: inactive; negative | mutagenic call (Test System: AMES SALMONELLA TYPHIMURIUM, Strain/Indicator: TA100, Metabolic Activation: RAT LIVER S-9, PHENOBARBITAL AND BETA-NAPHTHOFLAVONE, Method: PREINCUBATION): inactive; negative | mutagenic call [3]: inactive; negative | mutagenic call (Test System: AMES SALMONELLA TYPHIMURIUM, Strain/Indicator: TA1535, Metabolic Activation: RAT LIVER S-9, PHENOBARBITAL AND BETA-NAPHTHOFLAVONE, Method: PREINCUBATION): inactive; negative | mutagenic call [4]: inactive; negative | mutagenic call (Test System: AMES SALMONELLA TYPHIMURIUM, Strain/Indicator: TA1537, Metabolic Activation: RAT LIVER S-9, PHENOBARBITAL AND BETA-NAPHTHOFLAVONE, Method: PREINCUBATION): inactive; negative | mutagenic call (Test System: AMES SALMONELLA TYPHIMURIUM, Strain/Indicator: TA1538, Metabolic Activation: NONE, Method: PREINCUBATION): inactive; negative | mutagenic call (Test System: AMES SALMONELLA TYPHIMURIUM, Strain/Indicator: TA1538, Metabolic Activation: RAT LIVER S-9, PHENOBARBITAL AND BETA-NAPHTHOFLAVONE, Method: PREINCUBATION): inactive; negative | mutagenic call (Test System: E.COLI, Strain/Indicator: WP2UVRA, Metabolic Activation: NONE, Method: PREINCUBATION): inactive; negative | mutagenic call (Test System: E.COLI, Strain/Indicator: WP2UVRA, Metabolic Activation: RAT LIVER S-9, PHENOBARBITAL AND BETA-NAPHTHOFLAVONE, Method: PREINCUBATION): inactive; negative

COC(=O)c1ccc(C=O)cc1
mutagenic call (Test System: AMES SALMONELLA TYPHIMURIUM, Strain/Indicator: TA97, Metabolic Activation: HAMSTER, LIVER, S-9, AROCLOR 1254 (10 OR 30%), Method: PREINCUBATION): inactive; negative | mutagenic call (Test System: AMES SALMONELLA TYPHIMURIUM, Strain/Indicator: TA97, Metabolic Activation: NONE, Method: PREINCUBATION): inactive; negative | mutagenic call (Test System: AMES SALMONELLA TYPHIMURIUM, Strain/Indicator: TA97, Metabolic Activation: RAT, LIVER, S-9, AROCLOR 1254 (10 OR 30%), Method: PREINCUBATION): inactive; negative | mutagenic call (Test System: AMES SALMONELLA TYPHIMURIUM, Strain/Indicator: TA98, Metabolic Activation: HAMSTER, LIVER, S-9, AROCLOR 1254 (10 OR 30%), Method: PREINCUBATION): inactive; negative | mutagenic call [1]: inactive; negative | mutagenic call (Test System: AMES SALMONELLA TYPHIMURIUM, Strain/Indicator: TA98, Metabolic Activation: RAT, LIVER, S-9, AROCLOR 1254 (10 OR 30%), Method: PREINCUBATION): inactive; negative | mutagenic call (Test System: AMES SALMONELLA TYPHIMURIUM, Strain/Indicator: TA100, Metabolic Activation: HAMSTER, LIVER, S-9, AROCLOR 1254 (10 OR 30%), Method: PREINCUBATION): inactive; negative | mutagenic call [2]: inactive; negative | mutagenic call (Test System: AMES SALMONELLA TYPHIMURIUM, Strain/Indicator: TA100, Metabolic Activation: RAT, LIVER, S-9, AROCLOR 1254 (10 OR 30%), Method: PREINCUBATION): inactive; negative | mutagenic call (Test System: AMES SALMONELLA TYPHIMURIUM, Strain/Indicator: TA1535, Metabolic Activation: HAMSTER, LIVER, S-9, AROCLOR 1254 (10 OR 30%), Method: PREINCUBATION): inactive; negative | mutagenic call [3]: inactive; negative | mutagenic call (Test System: AMES SALMONELLA TYPHIMURIUM, Strain/Indicator: TA1535, Metabolic Activation: RAT, LIVER, S-9, AROCLOR 1254 (10 OR 30%), Method: PREINCUBATION): inactive; negative

C/C=C1/C[C@@H](C)[C@](O)(CO)C(=O)OCC2=CC[N+]3([O-])CC[C@@H](OC1=O)[C@@H]23 (stereo partly specified)
mutagenic call (Test System: AMES SALMONELLA TYPHIMURIUM, Strain/Indicator: TA100, Metabolic Activation: RAT, LIVER, S-9, SODIUM PHENOBARBITAL AND BETA-NAPHTHOFLAVONE, Method: PREINCUBATION): inactive; negative

Clc1ccc2oc3ccccc3c2c1
mutagenic call (Test System: AMES SALMONELLA TYPHIMURIUM, Strain/Indicator: TA98, Metabolic Activation: NONE, Method: STANDARD PLATE): active; positive | mutagenic call (Test System: AMES SALMONELLA TYPHIMURIUM, Strain/Indicator: TA98, Metabolic Activation: RAT, LIVER, S-9, PHENOBARBITAL AND NAPHTHOFLAVONE, Method: STANDARD PLATE): active; positive | mutagenic call [5]: inactive; negative | mutagenic call (Test System: AMES SALMONELLA TYPHIMURIUM, Strain/Indicator: TA100, Metabolic Activation: RAT, LIVER, S-9, PHENOBARBITAL AND NAPHTHOFLAVONE, Method: STANDARD PLATE): inactive; negative

C[N+](C)(C)CC1CO1 (stereo unspecified)
mutagenic call (Test System: UDS RAT HEPATOCYTES, Strain/Indicator: THY INCORP, Metabolic Activation: NONE): active; positive

Clc1ccc(C(Cl)c2ccccn2)cc1 (stereo unspecified)
mutagenic call (End Point: IN VITRO CHROMOSOMAL ABERRATIONS, Test System: CHL CELLS, Metabolic Activation: NONE): inactive; negative; test chemical precipitated at 0.2 mg/ml; toxic at 0.3 mg/ml (metaphase; also recorded: active; positive (structural changes); 0.30 mg/ml was toxic; metaphase cell division not | mutagenic call (End Point: IN VITRO CHROMOSOMAL ABERRATIONS, Test System: CHL CELLS, Metabolic Activation: RAT, LIVER, S-9, SODIUM PHENOBARBITAL AND 5,6-BENZOFLAVONE): active; positive (structural changes); test chemical precipitated at 2 highest of 4 dose

CC(C)C(=O)Nc1ccccc1
mutagenic call [5]: inactive; negative

Nc1c(S(=O)(=O)O)cc2cc(S(=O)(=O)O)ccc2c1N=Nc1ccc(-c2ccc(N=Nc3c(N)c(S(=O)(=O)O)cc4cc(S(=O)(=O)O)ccc34)c(Cl)c2)cc1Cl
mutagenic call (Test System: AMES SALMONELLA TYPHIMURIUM, Strain/Indicator: TA1538, Metabolic Activation: HAMSTER, LIVER, S-9, Method: STANDARD PLATE): inactive; negative | mutagenic call (Test System: AMES SALMONELLA TYPHIMURIUM, Strain/Indicator: TA1538, Metabolic Activation: RAT, LIVER, S-9, AROCLOR 1254, Method: STANDARD PLATE): inactive; negative

COC(=O)CCN(N=O)C(N)=O
mutagenic call (Test System: E. COLI B, Strain/Indicator: H/R30R, Metabolic Activation: NONE): active; positive | mutagenic call (Test System: E. COLI B, Strain/Indicator: HS30R, Metabolic Activation: NONE): active; positive

N#Cc1c(Cl)c(Cl)c(Cl)c(C#N)c1Cl
mutagenic call (End Point: IN VITRO CHROMOSOMAL ABERRATIONS, Test System: CHINESE HAMSTER OVARY CELLS, Metabolic Activation: NONE): active; positive | mutagenic call (End Point: IN VITRO CHROMOSOMAL ABERRATIONS, Test System: CHINESE HAMSTER OVARY CELLS, Metabolic Activation: RAT, LIVER, S-9, AROCLOR 1254): active; positive

CC(C)(C)c1ccc(OCC2CO2)cc1 (stereo unspecified)
mutagenic call (Test System: AMES SALMONELLA TYPHIMURIUM, Strain/Indicator: TA98, Metabolic Activation: HAMSTER, LIVER, S-9, AROCLOR 1254 (30%), Method: PREINCUBATION): inactive; negative | mutagenic call [1]: inactive; negative | mutagenic call (Test System: AMES SALMONELLA TYPHIMURIUM, Strain/Indicator: TA98, Metabolic Activation: RAT, LIVER, S-9, AROCLOR 1254 (30%), Method: PREINCUBATION): inactive; negative | mutagenic call (Test System: AMES SALMONELLA TYPHIMURIUM, Strain/Indicator: TA100, Metabolic Activation: HAMSTER, LIVER, S-9, AROCLOR 1254 (30%), Method: PREINCUBATION): inactive; negative | mutagenic call [2]: active; positive | mutagenic call (Test System: AMES SALMONELLA TYPHIMURIUM, Strain/Indicator: TA100, Metabolic Activation: RAT, LIVER, S-9, AROCLOR 1254 (30%), Method: PREINCUBATION): inactive; negative | mutagenic call (Test System: AMES SALMONELLA TYPHIMURIUM, Strain/Indicator: TA1535, Metabolic Activation: HAMSTER, LIVER, S-9, AROCLOR 1254 (30%), Method: PREINCUBATION): inactive; negative | mutagenic call [3]: inactive; negative | mutagenic call (Test System: AMES SALMONELLA TYPHIMURIUM, Strain/Indicator: TA1535, Metabolic Activation: RAT, LIVER, S-9, AROCLOR 1254 (30%), Method: PREINCUBATION): inactive; negative | mutagenic call (Test System: AMES SALMONELLA TYPHIMURIUM, Strain/Indicator: TA1537, Metabolic Activation: HAMSTER, LIVER, S-9, AROCLOR 1254 (30%), Method: PREINCUBATION): inactive; negative | mutagenic call [4]: inactive; negative | mutagenic call (Test System: AMES SALMONELLA TYPHIMURIUM, Strain/Indicator: TA1537, Metabolic Activation: RAT, LIVER, S-9, AROCLOR 1254 (30%), Method: PREINCUBATION): inactive; negative
